Source: ChEMBL document CHEMBL5150039 (Bioorg Med Chem, 2022)

What was measured:
[1] = target: T1, Solute carrier family 22 member 12 (Homo sapiens, UniProt Q96S37); settings: HEK293, human, 8 min, read-out: INH
T1 sequence (Q96S37 whole entry): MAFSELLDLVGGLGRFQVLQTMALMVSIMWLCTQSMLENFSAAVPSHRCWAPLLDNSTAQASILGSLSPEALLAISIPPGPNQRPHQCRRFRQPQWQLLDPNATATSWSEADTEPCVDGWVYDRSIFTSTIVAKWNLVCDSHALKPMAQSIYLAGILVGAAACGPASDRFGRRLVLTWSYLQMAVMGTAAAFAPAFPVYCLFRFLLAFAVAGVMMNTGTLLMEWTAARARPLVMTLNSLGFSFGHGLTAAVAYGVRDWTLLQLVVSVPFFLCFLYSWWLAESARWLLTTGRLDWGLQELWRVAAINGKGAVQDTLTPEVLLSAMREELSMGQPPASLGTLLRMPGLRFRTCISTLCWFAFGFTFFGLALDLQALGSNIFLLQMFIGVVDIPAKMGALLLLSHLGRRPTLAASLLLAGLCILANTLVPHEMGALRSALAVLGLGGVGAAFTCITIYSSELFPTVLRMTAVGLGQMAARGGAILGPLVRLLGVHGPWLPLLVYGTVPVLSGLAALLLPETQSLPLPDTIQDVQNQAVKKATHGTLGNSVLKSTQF
Description: Inhibition of URAT1 in human HEK293 cells assessed as inhibition of uric acid uptake at 1000 nM incubated for 8 mins by Microbeta scintillation counting analysis

[2] = target: T1, Solute carrier family 22 member 12; settings: HEK293, human, 8 min, read-out: INH; remark: listed apart in the source
Description: Inhibition of URAT1 in human HEK293 cells assessed as inhibition of uric acid uptake at 100 nM incubated for 8 mins by Microbeta scintillation counting analysis

[3] = target: T1, Solute carrier family 22 member 12; settings: HEK293, human, 8 min, read-out: INH; remark: listed apart in the source
[4] = target: T2, Bile acid receptor (Homo sapiens, UniProt Q96RI1); test: Agonist activity at FXR (unknown origin) expressed in human HepG2 cells co-transfected with human RXR incubated for 24 hrs by cell-based luciferase transactivation assay
T2 sequence (Q96RI1 whole entry): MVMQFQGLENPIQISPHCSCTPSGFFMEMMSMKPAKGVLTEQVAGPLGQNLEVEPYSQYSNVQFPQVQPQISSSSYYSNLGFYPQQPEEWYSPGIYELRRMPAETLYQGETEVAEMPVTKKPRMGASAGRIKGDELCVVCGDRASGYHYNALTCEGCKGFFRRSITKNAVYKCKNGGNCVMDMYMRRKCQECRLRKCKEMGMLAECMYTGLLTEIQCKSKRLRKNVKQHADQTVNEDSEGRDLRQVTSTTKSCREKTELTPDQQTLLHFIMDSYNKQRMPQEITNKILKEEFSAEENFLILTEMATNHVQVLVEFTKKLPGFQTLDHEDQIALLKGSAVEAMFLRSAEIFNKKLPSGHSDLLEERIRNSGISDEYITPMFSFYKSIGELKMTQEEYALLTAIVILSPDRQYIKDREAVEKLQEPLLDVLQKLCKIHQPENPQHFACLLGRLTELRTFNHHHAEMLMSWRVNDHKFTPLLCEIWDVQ

inhibition at 1 µM [1] [%] | inhibition at 0.1 µM [2] [%] | inhibition at 0.3 µM [3] [%] | EC50 [4] [µM] | Structure (SMILES)
12 | 1 | 3 | 15.6 | CCc1oc2ccccc2c1C(=O)c1ccc(OCc2cccc(C(=O)O)c2)cc1
45 | 6 | 23 |  | CCc1oc2ccccc2c1C(=O)c1cc(Br)c(OCCCC(=O)O)c(Br)c1
23 | 1 | 8 | 10.3 | CCc1oc2ccccc2c1C(=O)c1cc(Br)c(OCc2ccc(C(=O)O)cc2)c(Br)c1
31 | 3 | 18 | 17.8 | CCc1oc2ccccc2c1C(=O)c1cc(Br)c(OCc2cccc(OCC(=O)O)c2)c(Br)c1

Structure (SMILES) | inhibition at 1 µM [1] [%] | inhibition at 0.1 µM [2] [%] | inhibition at 0.3 µM [3] [%] | EC50 [4] [µM]
CCc1oc2ccccc2c1C(=O)c1cc(Br)c(O)c(Br)c1 [BENZBROMARONE] | 72 | 12 | 31 | 
